For this assay, the target named is T1, recombinant 15-PGDH (Homo sapiens, UniProt P15428).
T1 sequence (P15428 1-266): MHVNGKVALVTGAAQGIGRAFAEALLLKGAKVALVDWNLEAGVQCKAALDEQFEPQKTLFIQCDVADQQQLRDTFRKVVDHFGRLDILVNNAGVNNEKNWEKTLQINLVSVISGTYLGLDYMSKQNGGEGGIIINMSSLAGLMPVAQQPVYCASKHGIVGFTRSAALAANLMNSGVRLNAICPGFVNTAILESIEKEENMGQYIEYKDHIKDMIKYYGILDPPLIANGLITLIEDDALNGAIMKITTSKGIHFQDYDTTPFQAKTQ
The format is biochemical. Particulars: recombinant human 15-PGDH, in vitro; read-out: PDGH Assay-IC50.

IC50 data for 50 compounds are collected here from patent US12336982B2 (RODEO THERAPEUTICS CORPORATION, priority 2018, dated 2025).

The structures appear in SMILES notation. pIC50: −log10 of the molar value.

Description: The Recombinant 15-PGDH is human unless otherwise specified.

Turning to `COCC[S+]([O-])c1sc2nc(-c3cnc4nn(C)cc4c3)cc(-c3ccnn3C)c2c1N` (centres unmarked) [Example 334], the pIC50 is above 8.60. The same measure for `COCC[S@@+]([O-])c1sc2nc(-c3cnc4nn(C)cc4c3)cc(-c3ccnn3C)c2c1N` [Example 335]: above 8.60; for `COCC[S@+]([O-])c1sc2nc(-c3cnc4nn(C)cc4c3)cc(-c3ccnn3C)c2c1N` [Example 336]: at most 8.00. For `COCC[S+]([O-])c1sc2nc(-c3cncnc3)cc(-c3ccn(C)n3)c2c1N` (centres unmarked) [Example 337], the negative logarithm of the IC50 (pIC50) is above 8.60.

On to `Cn1ccc(-c2cc(-c3cnc(N)nc3)nc3sc([S+]([O-])C4CCC4)c(N)c23)n1` (centres unmarked) [Example 338], for which the pIC50 is above 8.60. As for `CNc1ncc(-c2cc(-c3ccn(C)n3)c3c(N)c([S+]([O-])CCOC)sc3n2)cn1` (centres unmarked) [Example 339], the pIC50 was above 8.60. Take `Cn1ccc(-c2cc(-c3cnc(NCCO)nc3)nc3sc([S+]([O-])C4CCC4)c(N)c23)n1` (centres unmarked) [Example 340]: the negative-log IC50 (pIC50) is above 8.60.

Take `Cn1ccc(-c2cc(-c3cnc4nn(C)cc4c3)nc3sc([S+]([O-])C4CCC4)c(N)c23)n1` (centres unmarked) [Example 341]: the pIC50 is above 8.60. Under `COCC[S+]([O-])c1sc2nc(-c3cnc4nn(C)cc4c3)cc(-c3ccn(C)n3)c2c1N` (centres unmarked) [Example 342] stands above 8.60; under `COCC[S@@+]([O-])c1sc2nc(-c3cnc4nn(C)cc4c3)cc(-c3ccn(C)n3)c2c1N` [Example 343], above 8.60. For the compound `COCC[S@+]([O-])c1sc2nc(-c3cnc4nn(C)cc4c3)cc(-c3ccn(C)n3)c2c1N` [Example 344], the pIC50 is at most 8.00. As for `Cn1nccc1-c1cc(-c2ccnnc2)nc2sc([S+]([O-])C3CCC3)c(N)c12` (centres unmarked) [Example 345], the negative logarithm of the IC50 (pIC50) was above 8.60.

With `COCC[S@@+]([O-])c1sc2nc(-c3cnc(N)nc3)cc(C3CCC3)c2c1N` [Example 346], the pIC50 was above 8.60. Turning to `COCC[S+]([O-])c1sc2nc(-c3ccnnc3)cc(C3CCC3)c2c1N` (centres unmarked) [Example 347], the pIC50 is above 8.60. Take `Nc1c([S+]([O-])C2CCC2)sc2nc(-c3cnc4nn(CCO)cc4c3)cc(C3CCC3)c12` (centres unmarked) [Example 348]: the negative logarithm of the IC50 (pIC50) is 8.00 to 8.60.

For the compound `COCC[S@@+]([O-])c1sc2nc(-c3cnc(NCCO)nc3)cc(C3CCC3)c2c1N` [Example 349], the pIC50 is above 8.60. `Nc1ncc(-c2cc(-c3ccno3)c3c(N)c([S+]([O-])C4CCC4)sc3n2)cn1` (centres unmarked) [Example 350]: the pIC50 is above 8.60. The same measure for `Nc1c([S+]([O-])C2CCC2)sc2nc(-c3cnc(NCCO)nc3)cc(-c3ccon3)c12` (centres unmarked) [Example 351]: above 8.60. On to `COCC[S+]([O-])c1sc2nc(-c3cncnc3)cc(-c3ccon3)c2c1N` (centres unmarked) [Example 352], for which the pIC50 was above 8.60. As for `CC(C)(C)[S+]([O-])c1sc2nc(-c3cnc(NCCO)nc3)cc(C3CCC3)c2c1N` (centres unmarked) [Example 353], the negative logarithm of the IC50 (pIC50) is 8.00 to 8.60.

As for `Cn1nccc1-c1cc(-c2cnc(NCCO)nc2)nc2sc([S+]([O-])C(C)(C)C)c(N)c12` (centres unmarked) [Example 354], the pIC50 is above 8.60.

Turning to `Cc1cc(-c2cc(-c3cnc(N)nc3)nc3sc([S+]([O-])C4CCC4)c(N)c23)n(C)n1` (centres unmarked) [Example 355], the negative-log IC50 (pIC50) is above 8.60.

Regarding `Cc1cc(-c2cc(-c3cncnc3)nc3sc([S+]([O-])C4CCC4)c(N)c23)n(C)n1` (centres unmarked) [Example 356], the pIC50 is above 8.60. With `Cc1cn(C)nc1-c1cc(-c2cnc(N)nc2)nc2sc([S+]([O-])C3CCC3)c(N)c12` (centres unmarked) [Example 357], the pIC50 was above 8.60.

For the compound `COCC[S+]([O-])c1sc2nc(-c3cnc4nncn4c3)cc(-c3ccccc3)c2c1N` (centres unmarked) [Example 358], the pIC50 was at most 8.00. `COCC[S@@+]([O-])c1sc2nc(-c3cnc4nncn4c3)cc(-c3ccccc3)c2c1N` [Example 359]: the pIC50 is above 8.60. For `COCC[S@+]([O-])c1sc2nc(-c3cnc4nncn4c3)cc(-c3ccccc3)c2c1N` [Example 360], the pIC50 was at most 8.00. As to `COCC[S+]([O-])c1sc2nc(-c3cnc4ncn(C)c4c3)cc(-c3ccccc3)c2c1N` (centres unmarked) [Example 361], the negative-log IC50 (pIC50) was above 8.60. As for `COCC[S@@+]([O-])c1sc2nc(-c3cnc4ncn(C)c4c3)cc(-c3ccccc3)c2c1N` [Example 362], the pIC50 is above 8.60. Regarding `COCC[S@+]([O-])c1sc2nc(-c3cnc4ncn(C)c4c3)cc(-c3ccccc3)c2c1N` [Example 363], the pIC50 is at most 8.00. Take `COCC[S+]([O-])c1sc2nc(-c3cnc4ncn(C)c4c3)cc(-c3ccccc3)c2c1N` (centres unmarked) [Example 364]: the pIC50 is above 8.60.

On to `COCC[S+]([O-])c1sc2nc(-c3cnc4ncn(C)c4c3)cc(C3CCC3)c2c1N` (centres unmarked) [Example 365], for which the pIC50 was above 8.60. With `COCC[S@@+]([O-])c1sc2nc(-c3cnc4ncn(C)c4c3)cc(C3CCC3)c2c1N` [Example 366], the pIC50 was above 8.60.

Regarding `COCC[S@+]([O-])c1sc2nc(-c3cnc4ncn(C)c4c3)cc(C3CCC3)c2c1N` [Example 367], the negative-log IC50 (pIC50) is at most 8.00.

Take `COCC[S+]([O-])c1sc2nc(-c3cnc4nnn(C)c4c3)cc(C3CCC3)c2c1N` (centres unmarked) [Example 368]: the pIC50 is above 8.60. Take `Cn1nccc1-c1cc(-c2cnc3nnn(C)c3c2)nc2sc([S+]([O-])C3CCC3)c(N)c12` (centres unmarked) [Example 369]: the pIC50 was above 8.60. Regarding `Cn1nccc1-c1cc(-c2cnc3nnn(C)c3c2)nc2sc([S+]([O-])C3CCC3)c(N)c12` (centres unmarked) [Example 370], the negative-log IC50 (pIC50) was above 8.60. The same measure for `Cn1nccc1-c1cc(-c2cnc3ncn(C)c3c2)nc2sc([S@+]([O-])C3CCC3)c(N)c12` [Example 371]: above 8.60. On to `Cn1nccc1-c1cc(-c2cnc3ncn(C)c3c2)nc2sc([S@@+]([O-])C3CCC3)c(N)c12` [Example 372], for which the pIC50 is at most 8.00. Under `COCC[S+]([O-])c1sc2nc(-c3cnc4c(c3)ncn4C)cc(C3CCC3)c2c1N` (centres unmarked) [Example 373] stands above 8.60; under `COCC[S@@+]([O-])c1sc2nc(-c3cnc4c(c3)ncn4C)cc(C3CCC3)c2c1N` [Example 374], above 8.60. For the compound `COCC[S@+]([O-])c1sc2nc(-c3cnc4c(c3)ncn4C)cc(C3CCC3)c2c1N` [Example 375], the negative-log IC50 (pIC50) is at most 8.00. As for `COCC[S+]([O-])c1sc2nc(-c3cnc4c(c3)ncn4C)cc(C3CCC3)c2c1N` (centres unmarked) [Example 376], the pIC50 is above 8.60. In the case of `COCC[S+]([O-])c1sc2nc(-c3cnc4nn(C)nc4c3)cc(C3CCC3)c2c1N` (centres unmarked) [Example 377], the pIC50 is above 8.60. `Cn1nc2cc(-c3cc(-c4ccnn4C)c4c(N)c([S+]([O-])C5CCC5)sc4n3)cnc2n1` (centres unmarked) [Example 378]: the negative logarithm of the IC50 (pIC50) was above 8.60. On to `COCC[S+]([O-])c1sc2nc(-c3cnc4c(c3)ncn4C)cc(-c3ccnn3C)c2c1N` (centres unmarked) [Example 379], for which the negative logarithm of the IC50 (pIC50) was above 8.60. The same measure for `COCC[S+]([O-])c1sc2nc(-c3cnc4nn(C)nc4c3)cc(-c3ccnn3C)c2c1N` (centres unmarked) [Example 380]: above 8.60; for `COCC[S@@+]([O-])c1sc2nc(-c3cnc4nn(C)nc4c3)cc(-c3ccnn3C)c2c1N` [Example 381]: above 8.60. In the case of `COCC[S@+]([O-])c1sc2nc(-c3cnc4nn(C)nc4c3)cc(-c3ccnn3C)c2c1N` [Example 382], the pIC50 was at most 8.00. Regarding `Cn1nccc1-c1cc(-c2cnc3c(c2)ncn3C)nc2sc([S+]([O-])C3CCC3)c(N)c12` (centres unmarked) [Example 383], the pIC50 is above 8.60.
